Laboratory results published in paper PMC9856672, “SGC-CAMKK2-1: A Chemical Probe for CAMKK2” (Cells, 2023).

Key:
[1] = biological target: T1, FYN (Homo sapiens, UniProt P06241); experiment: KINOMEscan at 1 μM, FYN; format: binding; settings: 1000 nM, read-out: Percent Control
T1 construct: purchased Eurofins DiscoverX KINOMEscan
From the text: (§1) Supplement cells-12-00287-s001.zip/File S2. KinomeScan data for the CAMKK2 probe and negative control.xlsx, sheet "SGC-CAMKK2-1N" | column: Percent Control

[2] = biological target: T2, MARK2 (Homo sapiens, UniProt Q7KZI7); experiment: KINOMEscan at 1 μM, MARK2; format: binding; settings: 1000 nM, read-out: Percent Control
T2 construct: purchased Eurofins DiscoverX KINOMEscan
From the text: as §1

[3] = biological target: T3, NDR2 (Homo sapiens, UniProt Q9Y2H1); experiment: KINOMEscan at 1 μM, NDR2; format: binding; settings: 1000 nM, read-out: Percent Control
T3 construct: purchased Eurofins DiscoverX KINOMEscan
From the text: as §1

[4] = biological target: T4, FLT3 (Homo sapiens, UniProt P36888); experiment: KINOMEscan at 1 μM, FLT3; format: binding; settings: 1000 nM, read-out: Percent Control
T4 construct: purchased Eurofins DiscoverX KINOMEscan
From the text: as §1

[5] = biological target: T5, NIK (Homo sapiens, UniProt Q99558); experiment: KINOMEscan at 1 μM, NIK; format: binding; settings: 1000 nM, read-out: Percent Control
T5 construct: purchased Eurofins DiscoverX KINOMEscan
From the text: as §1

[6] = biological target: T6, MAPKAPK2 (Homo sapiens, UniProt P49137); experiment: KINOMEscan binding assay at 1 μM, MAPKAPK2; settings: Compound Concentration 1000 nM; read-out: Percent Control
T6 construct: purchased Eurofins DiscoverX KINOMEscan
From the text: as §1

[7] = biological target: T7, TAOK1 (Homo sapiens, UniProt Q7L7X3); experiment: KINOMEscan at 1 μM, TAOK1; format: binding; settings: 1000 nM, read-out: Percent Control
T7 construct: purchased Eurofins DiscoverX KINOMEscan
From the text: as §1

[8] = biological target: T8, MAP4K2 (Homo sapiens, UniProt Q12851); experiment: KINOMEscan at 1 μM, MAP4K2; format: binding; settings: 1000 nM, read-out: Percent Control
T8 construct: purchased Eurofins DiscoverX KINOMEscan
From the text: as §1

[9] = biological target: T9, TRKB (Homo sapiens, UniProt Q16620); experiment: KINOMEscan at 1 μM, TRKB; format: binding; settings: 1000 nM, read-out: Percent Control
T9 construct: purchased Eurofins DiscoverX KINOMEscan
From the text: as §1

[10] = biological target: T10, TSSK3 (Homo sapiens, UniProt Q96PN8); experiment: KINOMEscan at 1 μM, TSSK3; format: binding; settings: 1000 nM, read-out: Percent Control
T10 construct: purchased Eurofins DiscoverX KINOMEscan
From the text: as §1

[11] = biological target: T11, EPHB4 (Homo sapiens, UniProt P54760); experiment: KINOMEscan at 1 μM, EPHB4; format: binding; settings: 1000 nM, read-out: Percent Control
T11 construct: purchased Eurofins DiscoverX KINOMEscan
From the text: as §1

[12] = biological target: T12, PIM1 (Homo sapiens, UniProt P11309); experiment: KINOMEscan at 1 μM, PIM1; format: binding; settings: 1000 nM, read-out: Percent Control
T12 construct: purchased Eurofins DiscoverX KINOMEscan
From the text: as §1

[13] = biological target: T13, TNIK (Homo sapiens, UniProt Q9UKE5); experiment: KINOMEscan at 1 μM, TNIK; format: binding; settings: 1000 nM, read-out: Percent Control
T13 construct: purchased Eurofins DiscoverX KINOMEscan
From the text: as §1

[14] = biological target: T14, SGK3 (Homo sapiens, UniProt Q96BR1); experiment: KINOMEscan binding assay at 1 μM, SGK3; settings: Compound Concentration 1000 nM; read-out: Percent Control
T14 construct: purchased Eurofins DiscoverX KINOMEscan
From the text: as §1

[15] = biological target: T15, ABL1-nonphosphorylated (Homo sapiens, UniProt P00519); experiment: KINOMEscan at 1 μM, ABL1-nonphosphorylated; format: binding; settings: 1000 nM, read-out: Percent Control
T15 construct: purchased Eurofins DiscoverX KINOMEscan
From the text: as §1

[16] = biological target: T16, EPHB1 (Homo sapiens, UniProt P54762); experiment: KINOMEscan at 1 μM, EPHB1; format: binding; settings: 1000 nM, read-out: Percent Control
T16 construct: purchased Eurofins DiscoverX KINOMEscan
From the text: as §1

[17] = biological target: T17, GRK4 (Homo sapiens, UniProt P32298); experiment: KINOMEscan binding assay at 1 μM, GRK4; settings: Compound Concentration 1000 nM; read-out: Percent Control
T17 construct: purchased Eurofins DiscoverX KINOMEscan
From the text: as §1

[18] = biological target: T18, ERK2 (Homo sapiens, UniProt P28482); experiment: KINOMEscan binding assay at 1 μM, ERK2; settings: Compound Concentration 1000 nM; read-out: Percent Control
T18 construct: purchased Eurofins DiscoverX KINOMEscan
From the text: as §1

[19] = biological target: T19, RET (Homo sapiens, UniProt P07949); experiment: KINOMEscan binding assay at 1 μM, RET; settings: Compound Concentration 1000 nM; read-out: Percent Control
T19 construct: purchased Eurofins DiscoverX KINOMEscan
From the text: as §1

[20] = biological target: T20, PCTK1 (Homo sapiens, UniProt Q00536); experiment: DiscoverX KINOMEscan binding assay at 1 μM, PCTK1; settings: PCTK1 (CDK16); Compound Concentration 1000 nM; read-out: Percent Control
T20 construct: purchased Eurofins DiscoverX KINOMEscan
From the text: (§2) Supplement cells-12-00287-s001.zip/File S2. KinomeScan data for the CAMKK2 probe and negative control.xlsx, sheet "SGC-CAMKK2-1" | column: Percent Control

[21] = biological target: T21, TYRO3 (Homo sapiens, UniProt Q06418); experiment: DiscoverX KINOMEscan binding assay at 1 μM, TYRO3; settings: Compound Concentration 1000 nM, read-out: Percent Control
T21 construct: purchased Eurofins DiscoverX KINOMEscan
From the text: as §2

[22] = biological target: T22, PAK3 (Homo sapiens, UniProt O75914); experiment: DiscoverX KINOMEscan binding assay at 1 μM, PAK3; settings: Compound Concentration 1000 nM, read-out: Percent Control
T22 construct: purchased Eurofins DiscoverX KINOMEscan
From the text: as §2

[23] = biological target: T23, IKK-beta (Homo sapiens, UniProt O14920); experiment: KINOMEscan 1 μM, IKK-beta; format: binding; settings: 1000 nM; Entrez IKBKB; read-out: Percent Control
T23 construct: purchased Eurofins DiscoverX KINOMEscan
From the text: as §2

[24] = biological target: T24, DYRK1A (Homo sapiens, UniProt Q13627); experiment: KINOMEscan 1 μM, DYRK1A; format: binding; settings: 1000 nM; Entrez DYRK1A; read-out: Percent Control
T24 construct: purchased Eurofins DiscoverX KINOMEscan
From the text: as §2

[25] = biological target: T25, VRK2 (Homo sapiens, UniProt Q86Y07); experiment: DiscoverX KINOMEscan binding assay at 1 μM, VRK2; settings: Compound Concentration 1000 nM, read-out: Percent Control
T25 construct: purchased Eurofins DiscoverX KINOMEscan
From the text: as §2

[26] = biological target: T26, TSSK1B (Homo sapiens, UniProt Q9BXA7); experiment: DiscoverX KINOMEscan binding assay at 1 μM, TSSK1B; settings: Compound Concentration 1000 nM, read-out: Percent Control
T26 construct: purchased Eurofins DiscoverX KINOMEscan
From the text: as §2

[27] = biological target: T27, ERBB3 (Homo sapiens, UniProt P21860); experiment: KINOMEscan 1 μM, ERBB3; format: binding; settings: 1000 nM; Entrez ERBB3; read-out: Percent Control
T27 construct: purchased Eurofins DiscoverX KINOMEscan
From the text: as §2

[28] = biological target: T28, ABL1(F317L)-nonphosphorylated (Homo sapiens, UniProt P00519, F317L); experiment: KINOMEscan 1 μM, ABL1(F317L)-nonphosphorylated; format: binding; settings: 1000 nM; Entrez ABL1; read-out: Percent Control
T28 construct: purchased Eurofins DiscoverX KINOMEscan
From the text: as §2

[29] = biological target: T29, NEK1 (Homo sapiens, UniProt Q96PY6); experiment: KINOMEscan 1 μM, NEK1; format: binding; settings: 1000 nM; Entrez NEK1; read-out: Percent Control
T29 construct: purchased Eurofins DiscoverX KINOMEscan
From the text: as §2

[30] = biological target: T30, EGFR(S752-I759del) (Homo sapiens, UniProt P00533, DEL752-759); experiment: KINOMEscan 1 μM, EGFR(S752-I759del); format: binding; settings: 1000 nM; Entrez EGFR; read-out: Percent Control
T30 construct: purchased Eurofins DiscoverX KINOMEscan
From the text: as §2

[31] = biological target: T31, CSF1R (Homo sapiens, UniProt P07333); experiment: KINOMEscan 1 μM, CSF1R; format: binding; settings: 1000 nM; Entrez CSF1R; read-out: Percent Control
T31 construct: purchased Eurofins DiscoverX KINOMEscan
From the text: as §2

[32] = biological target: T32, MEK1 (Homo sapiens, UniProt Q02750); experiment: KINOMEscan 1 μM, MEK1; format: binding; settings: 1000 nM; Entrez MAP2K1; read-out: Percent Control
T32 construct: purchased Eurofins DiscoverX KINOMEscan
From the text: as §2

[33] = biological target: T33, ABL1(F317L)-phosphorylated (Homo sapiens, UniProt P00519, F317L); experiment: KINOMEscan 1 μM, ABL1(F317L)-phosphorylated; format: binding; settings: 1000 nM; Entrez ABL1; read-out: Percent Control
T33 construct: purchased Eurofins DiscoverX KINOMEscan
From the text: as §2

[34] = biological target: T34, LATS1 (Homo sapiens, UniProt O95835); experiment: KINOMEscan 1 μM, LATS1; format: binding; settings: 1000 nM; Entrez LATS1; read-out: Percent Control
T34 construct: purchased Eurofins DiscoverX KINOMEscan
From the text: as §2

[35] = biological target: T35, TLK1 (Homo sapiens, UniProt Q9UKI8); experiment: KINOMEscan 1 μM, TLK1; format: binding; settings: 1000 nM; Entrez TLK1; read-out: Percent Control
T35 construct: purchased Eurofins DiscoverX KINOMEscan
From the text: as §2

T17 sequence (P32298 whole entry): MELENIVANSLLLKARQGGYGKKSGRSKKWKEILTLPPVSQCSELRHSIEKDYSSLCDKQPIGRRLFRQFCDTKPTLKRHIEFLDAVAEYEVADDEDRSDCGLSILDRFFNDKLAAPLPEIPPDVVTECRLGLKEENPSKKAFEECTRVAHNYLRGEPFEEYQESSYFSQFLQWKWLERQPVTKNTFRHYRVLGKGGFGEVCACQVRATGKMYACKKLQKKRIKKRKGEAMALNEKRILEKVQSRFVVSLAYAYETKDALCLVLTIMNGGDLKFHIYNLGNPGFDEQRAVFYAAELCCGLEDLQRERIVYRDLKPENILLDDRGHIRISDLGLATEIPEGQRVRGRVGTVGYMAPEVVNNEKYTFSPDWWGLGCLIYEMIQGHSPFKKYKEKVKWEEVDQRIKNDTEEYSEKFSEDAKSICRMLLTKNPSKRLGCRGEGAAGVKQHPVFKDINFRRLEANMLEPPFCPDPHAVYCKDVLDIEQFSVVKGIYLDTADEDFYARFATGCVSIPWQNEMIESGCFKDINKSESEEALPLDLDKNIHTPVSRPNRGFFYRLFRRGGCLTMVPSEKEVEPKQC
T20 sequence (Q00536 whole entry): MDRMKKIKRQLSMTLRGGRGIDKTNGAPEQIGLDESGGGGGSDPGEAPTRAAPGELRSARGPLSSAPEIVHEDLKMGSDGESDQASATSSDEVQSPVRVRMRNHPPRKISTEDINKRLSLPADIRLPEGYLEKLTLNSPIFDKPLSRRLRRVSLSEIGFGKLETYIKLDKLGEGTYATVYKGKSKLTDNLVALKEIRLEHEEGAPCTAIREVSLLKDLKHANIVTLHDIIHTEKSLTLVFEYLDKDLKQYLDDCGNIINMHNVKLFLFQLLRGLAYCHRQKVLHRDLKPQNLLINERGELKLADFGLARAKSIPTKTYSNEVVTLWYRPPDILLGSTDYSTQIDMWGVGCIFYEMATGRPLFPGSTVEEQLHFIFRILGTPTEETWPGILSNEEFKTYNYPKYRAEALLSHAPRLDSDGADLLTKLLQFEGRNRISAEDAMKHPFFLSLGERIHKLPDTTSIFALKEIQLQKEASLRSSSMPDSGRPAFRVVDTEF
T3 sequence (Q9Y2H1 whole entry): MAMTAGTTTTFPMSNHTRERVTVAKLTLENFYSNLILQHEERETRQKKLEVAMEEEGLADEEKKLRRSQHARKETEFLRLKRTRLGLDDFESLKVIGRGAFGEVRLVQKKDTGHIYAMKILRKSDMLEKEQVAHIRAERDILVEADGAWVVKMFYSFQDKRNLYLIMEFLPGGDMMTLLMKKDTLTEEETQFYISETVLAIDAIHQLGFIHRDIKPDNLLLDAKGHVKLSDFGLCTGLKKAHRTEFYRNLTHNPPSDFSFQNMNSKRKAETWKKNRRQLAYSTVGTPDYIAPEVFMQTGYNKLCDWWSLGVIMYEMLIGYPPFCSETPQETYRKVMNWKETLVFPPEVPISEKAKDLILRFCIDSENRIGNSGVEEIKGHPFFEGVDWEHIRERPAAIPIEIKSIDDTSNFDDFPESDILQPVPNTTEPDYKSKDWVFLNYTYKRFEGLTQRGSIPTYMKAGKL
T34 sequence (O95835 whole entry): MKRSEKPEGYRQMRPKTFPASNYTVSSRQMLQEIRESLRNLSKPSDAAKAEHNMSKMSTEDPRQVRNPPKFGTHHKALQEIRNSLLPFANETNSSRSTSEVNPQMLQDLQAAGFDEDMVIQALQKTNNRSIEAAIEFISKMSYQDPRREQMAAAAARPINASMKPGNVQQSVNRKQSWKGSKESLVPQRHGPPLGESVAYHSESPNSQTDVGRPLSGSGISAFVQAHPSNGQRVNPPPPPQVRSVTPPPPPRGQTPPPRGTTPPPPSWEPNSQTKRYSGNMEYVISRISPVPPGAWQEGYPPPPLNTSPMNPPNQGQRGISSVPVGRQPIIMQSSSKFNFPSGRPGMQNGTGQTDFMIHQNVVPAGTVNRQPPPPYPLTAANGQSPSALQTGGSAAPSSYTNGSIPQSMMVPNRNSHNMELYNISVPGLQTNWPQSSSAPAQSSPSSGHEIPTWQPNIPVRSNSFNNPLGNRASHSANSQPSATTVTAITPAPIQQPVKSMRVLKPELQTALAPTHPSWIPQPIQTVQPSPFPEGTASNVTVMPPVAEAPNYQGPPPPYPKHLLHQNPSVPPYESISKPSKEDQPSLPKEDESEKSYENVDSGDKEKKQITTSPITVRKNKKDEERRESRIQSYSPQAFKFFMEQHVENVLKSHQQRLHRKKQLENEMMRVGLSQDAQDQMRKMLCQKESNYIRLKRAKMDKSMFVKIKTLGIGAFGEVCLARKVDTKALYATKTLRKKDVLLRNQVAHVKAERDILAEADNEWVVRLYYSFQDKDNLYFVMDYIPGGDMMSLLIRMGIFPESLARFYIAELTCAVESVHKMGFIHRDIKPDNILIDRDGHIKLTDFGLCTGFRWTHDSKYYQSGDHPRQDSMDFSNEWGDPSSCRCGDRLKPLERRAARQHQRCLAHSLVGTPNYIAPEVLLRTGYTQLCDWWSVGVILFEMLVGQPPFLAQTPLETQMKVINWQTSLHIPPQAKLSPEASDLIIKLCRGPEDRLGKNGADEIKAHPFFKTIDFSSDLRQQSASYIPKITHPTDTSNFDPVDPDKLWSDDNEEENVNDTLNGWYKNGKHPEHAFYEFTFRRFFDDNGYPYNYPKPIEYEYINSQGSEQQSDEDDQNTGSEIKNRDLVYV
T9 sequence (Q16620 32-822): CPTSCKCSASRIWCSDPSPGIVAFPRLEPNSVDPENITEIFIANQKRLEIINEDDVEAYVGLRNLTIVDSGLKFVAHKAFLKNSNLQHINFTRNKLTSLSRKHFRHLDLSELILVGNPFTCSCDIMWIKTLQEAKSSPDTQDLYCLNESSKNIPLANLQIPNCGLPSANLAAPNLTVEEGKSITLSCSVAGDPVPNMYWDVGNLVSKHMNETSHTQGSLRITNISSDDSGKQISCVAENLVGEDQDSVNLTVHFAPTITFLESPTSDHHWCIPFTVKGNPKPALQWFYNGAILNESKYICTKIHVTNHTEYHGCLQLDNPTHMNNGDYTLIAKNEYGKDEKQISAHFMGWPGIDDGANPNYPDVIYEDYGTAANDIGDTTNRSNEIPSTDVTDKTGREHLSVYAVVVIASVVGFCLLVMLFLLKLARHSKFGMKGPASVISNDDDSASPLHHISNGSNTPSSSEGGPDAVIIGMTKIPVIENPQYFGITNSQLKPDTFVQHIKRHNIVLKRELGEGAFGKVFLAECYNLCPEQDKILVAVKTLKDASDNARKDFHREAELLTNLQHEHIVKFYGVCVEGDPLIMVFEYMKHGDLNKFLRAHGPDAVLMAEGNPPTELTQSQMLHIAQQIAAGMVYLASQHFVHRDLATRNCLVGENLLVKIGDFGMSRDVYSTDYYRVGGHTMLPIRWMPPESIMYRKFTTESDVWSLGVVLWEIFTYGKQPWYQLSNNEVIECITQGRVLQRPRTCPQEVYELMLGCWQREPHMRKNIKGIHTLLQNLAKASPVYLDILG
T29 sequence (Q96PY6 whole entry): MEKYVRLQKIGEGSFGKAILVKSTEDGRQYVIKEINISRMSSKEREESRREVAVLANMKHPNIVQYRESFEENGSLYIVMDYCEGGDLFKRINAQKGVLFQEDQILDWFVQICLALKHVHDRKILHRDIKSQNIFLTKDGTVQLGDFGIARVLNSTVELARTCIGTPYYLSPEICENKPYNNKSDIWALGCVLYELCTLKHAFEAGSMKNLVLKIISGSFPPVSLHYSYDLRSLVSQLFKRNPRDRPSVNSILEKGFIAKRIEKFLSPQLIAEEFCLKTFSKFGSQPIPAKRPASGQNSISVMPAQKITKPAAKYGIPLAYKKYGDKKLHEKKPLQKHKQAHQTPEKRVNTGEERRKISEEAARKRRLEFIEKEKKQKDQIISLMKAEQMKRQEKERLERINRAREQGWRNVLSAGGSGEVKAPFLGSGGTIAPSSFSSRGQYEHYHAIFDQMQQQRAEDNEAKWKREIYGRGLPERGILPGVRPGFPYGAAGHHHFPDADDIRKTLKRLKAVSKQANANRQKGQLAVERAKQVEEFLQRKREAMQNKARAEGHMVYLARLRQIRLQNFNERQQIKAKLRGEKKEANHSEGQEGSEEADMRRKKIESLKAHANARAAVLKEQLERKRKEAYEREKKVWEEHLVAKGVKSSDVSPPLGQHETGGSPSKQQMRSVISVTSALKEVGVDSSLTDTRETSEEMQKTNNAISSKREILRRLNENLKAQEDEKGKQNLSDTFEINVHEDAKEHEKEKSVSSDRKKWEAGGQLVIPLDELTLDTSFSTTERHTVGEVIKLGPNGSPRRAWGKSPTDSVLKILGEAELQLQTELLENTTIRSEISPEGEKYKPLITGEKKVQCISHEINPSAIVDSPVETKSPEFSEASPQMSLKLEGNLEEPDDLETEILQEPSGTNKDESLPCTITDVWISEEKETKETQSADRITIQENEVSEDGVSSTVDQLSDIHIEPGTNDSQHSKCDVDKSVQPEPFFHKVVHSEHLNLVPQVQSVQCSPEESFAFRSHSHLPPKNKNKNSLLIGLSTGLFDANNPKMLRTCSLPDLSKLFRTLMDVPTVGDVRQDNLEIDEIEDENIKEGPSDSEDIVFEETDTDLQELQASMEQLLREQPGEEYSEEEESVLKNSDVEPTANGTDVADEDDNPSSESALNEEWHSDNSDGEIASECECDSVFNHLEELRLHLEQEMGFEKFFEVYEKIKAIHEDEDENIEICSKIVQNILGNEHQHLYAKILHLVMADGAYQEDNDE
T18 sequence (P28482 whole entry): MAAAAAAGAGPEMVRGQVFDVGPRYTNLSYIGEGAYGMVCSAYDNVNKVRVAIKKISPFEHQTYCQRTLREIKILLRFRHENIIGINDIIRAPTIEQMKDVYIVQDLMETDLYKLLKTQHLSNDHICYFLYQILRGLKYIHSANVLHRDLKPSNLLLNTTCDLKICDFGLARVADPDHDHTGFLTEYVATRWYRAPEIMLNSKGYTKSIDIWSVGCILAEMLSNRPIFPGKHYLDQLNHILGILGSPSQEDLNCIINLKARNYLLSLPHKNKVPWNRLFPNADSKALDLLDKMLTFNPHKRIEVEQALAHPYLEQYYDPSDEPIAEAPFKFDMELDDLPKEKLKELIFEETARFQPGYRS

Compound `O=C(O)c1ccc(-c2coc3ncc(-c4ccccc4)cc23)cc1Cl` [SGC-CAMKK2-1N (UNC-YL-83)] has a remaining binding at 1 µM [1] of 80%, a remaining binding at 1 µM [2] of 70% and a remaining binding at 1 µM [3] of 76%. The remaining binding at 1 µM [4] was 91%, the remaining binding at 1 µM [5] was 94% and the remaining binding at 1 µM [6] was 100%. It also gave a remaining binding at 1 µM [7] of 77%, a remaining binding at 1 µM [8] of 77% and a remaining binding at 1 µM [9] of 81%. It also gave a remaining binding at 1 µM [10] of 65%, a remaining binding at 1 µM [11] of 56% and a remaining binding at 1 µM [12] of 75%. For the same compound, the remaining binding at 1 µM [13] was 73%, the remaining binding at 1 µM [14] was 100% and the remaining binding at 1 µM [15] was 66%. It also gave a remaining binding at 1 µM [16] of 91%, a remaining binding at 1 µM [17] of 100% and a remaining binding at 1 µM [18] of 100%. The remaining binding at 1 µM [19] was 100%.
In the case of `Cc1cccc(-c2cnc3occ(-c4ccc(C(=O)O)c(C5CCCC5)c4)c3c2)c1` [SGC-CAMKK2-1 (YL-36)], the remaining binding at 1 µM [20] is reported as 100%, the remaining binding at 1 µM [21] is reported as 100% and the remaining binding at 1 µM [22] is reported as 100%. For the same compound, the remaining binding at 1 µM [23] was 100%, the remaining binding at 1 µM [24] was 100% and the remaining binding at 1 µM [25] was 100%. The remaining binding at 1 µM [26] was 100%, the remaining binding at 1 µM [27] was 86% and the remaining binding at 1 µM [28] was 71%. The remaining binding at 1 µM [29] was 85%, the remaining binding at 1 µM [30] was 87% and the remaining binding at 1 µM [31] was 100%. For the same compound, the remaining binding at 1 µM [32] was 100%, the remaining binding at 1 µM [33] was 100% and the remaining binding at 1 µM [34] was 100%. For the same compound, the remaining binding at 1 µM [35] was 92%.
